Reference: patent publication US5756546A (priority 1994, dated 1998)
Structures can show the parent of a compound that is named as a salt.

Key:
[1] = whether or not linked with L-arginine
[2] = known salts in solution; cited from earlier work

Compound	pH imposed in solution compared with the alkali metal salts (in words) [1]	pH imposed in solution (in words) [2]
CS(=O)(=O)Nc1ccc([N+](=O)[O-])cc1Oc1ccccc1 [nimesulide-L-lysine salt]	markedly less alkaline pH	
CS(=O)(=O)Nc1ccc([N+](=O)[O-])cc1Oc1ccccc1 [sodium salt of nimesulide]		relatively alkaline pH
